Experimental data reported in PMC4026327 (Nature Communications, 2014).

Tests used:
Conditions in all cases: read-out: Melibiose displacement of D ^ 2 G (IC 50); 10 μM D2G, 20 mM NaCl, 100 mM KPi pH 7.5
MelBSt (WT) [1] = target: MelBSt (WT) (Salmonella enterica, UniProt P30878, L5M/R363C)
MelBSt (WT) [2] = target: MelBSt (WT) (Salmonella enterica, UniProt P30878, L5M/R295C)
MelBSt (WT) [3] = target: MelBSt (WT) (Salmonella enterica, UniProt P30878, L5M/R141C)
MelBSt (WT) [4] = target: MelBSt (WT) (Salmonella enterica, UniProt P30878, L5M)

Work on `OC[C@H]1O[C@H](OC[C@H]2OC(O)[C@H](O)[C@@H](O)[C@@H]2O)[C@H](O)[C@@H](O)[C@H]1O` (stereo partly shown) [melibiose] yielded an IC50 (MelBSt (WT) [1]) of 2.83 ± 0.57 mM, an IC50 (MelBSt (WT) [2]) of 4.04 ± 0.42 mM and an IC50 (MelBSt (WT) [3]) of 5.93 ± 1.61 mM. For the same compound, the IC50 (MelBSt (WT) [4]) was 2.65 ± 0.8 mM.
